For orientation: Vdss means a proportionality between amount in the body and measured concentration, not a real space. Lower therefore signals little distribution into tissue. For orientation: IC50 means the concentration at which inhibition is half-maximal. The low end stands for inhibition by little substance, the high end for a need for much substance. As a reminder, the Ki is a measure of affinity in units of concentration, obtained from inhibition or displacement. A high value points to a looser hold on the target. In general, inhibition refers to the change of the read-out against control, counted positive when it falls. A word on the AUC: it is concentration integrated over time. A higher AUC goes with high exposure.

Here are results for 22 compounds from ChEMBL document CHEMBL5143585, “Discovery and characterization of benzyloxy piperidine based dopamine 4 receptor antagonists” (Bioorg Med Chem Lett, 2022).

Series [1] can be described thus: Plasma concentration in rat at 0.25 mg/kg, iv measured on day 2 at 0.25 hrs post-dose. It counts as ADME, organism-based. As to conditions: time 2 day.
A short description of series [2]: Volume of distribution at steady state in rat at 0.25 mg/kg, iv measured for 24 hrs. It counts as ADME, organism-based. As to conditions: in vivo.
Series [3] is described as follows: Protein binding in human plasma assessed as unbound fraction. The class given is ADME, cell-free.
Series [4] has as its target T1, D(4) dopamine receptor (Homo sapiens, UniProt P21917).
T1 sequence (P21917 whole entry): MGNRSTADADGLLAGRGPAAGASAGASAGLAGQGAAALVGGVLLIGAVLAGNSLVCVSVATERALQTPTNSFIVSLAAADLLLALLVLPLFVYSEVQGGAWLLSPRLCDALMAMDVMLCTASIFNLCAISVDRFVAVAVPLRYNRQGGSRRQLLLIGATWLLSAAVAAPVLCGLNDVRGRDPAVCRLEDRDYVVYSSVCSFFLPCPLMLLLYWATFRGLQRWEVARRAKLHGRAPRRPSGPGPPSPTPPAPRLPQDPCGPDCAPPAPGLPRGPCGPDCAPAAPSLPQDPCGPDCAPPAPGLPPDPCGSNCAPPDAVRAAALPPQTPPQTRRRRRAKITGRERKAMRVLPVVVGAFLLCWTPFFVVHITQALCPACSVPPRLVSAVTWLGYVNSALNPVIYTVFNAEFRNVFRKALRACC
The series is described as follows: Displacement of [3H]N-methylspiperone from human D4 receptor expressed in HEK293 cell membrane by competitive inhibition based analysis. The class given is cell membranes. Background: Loss of bound radioactivity is the signal in a displacement assay; it reports binding, not function.

Series [5] addresses D(1A) dopamine receptor (Homo sapiens, UniProt P21728). Description: Displacement of [3H]-SCH23390 from human D1 receptor expressed in HEK293 cell membrane at 10 uM by competitive inhibition based analysis. It counts as cell membranes.
Series [6] concerns the target T2, D(3) dopamine receptor (Homo sapiens, UniProt P35462). The series is described as follows: Displacement of [3H]N-methylspiperone from human D3 receptor expressed in HEK293 cell membrane at 10 uM by competitive inhibition based analysis. The class given is cell membranes.
Series [7] in a line: Protein binding in mouse plasma assessed as unbound fraction. The class given is ADME, cell-free.
Series [8] can be described thus: Ratio of drug level in rat brain to plasma at 0.25 mg/kg, iv measured on day 2 at 0.25 hrs post-dose. The note with it: time 2 day, read-out: BPR. The class given is ADME, organism-based.
The target in series [9] is D(2) dopamine receptor (Homo sapiens) (UniProt P14416). The series is described as follows: Displacement of [3H]N-methylspiperone from human D2 receptor expressed in HEK293 cell membrane at 10 uM by competitive inhibition based analysis. It counts as cell membranes.
For series [10], the target named is D(1B) dopamine receptor (Homo sapiens, UniProt P21918). The series is described as follows: Displacement of [3H]-SCH23390 from human D5 receptor expressed in HEK293 cell membrane at 10 uM by competitive inhibition based analysis. The class given is cell membranes.
Series [11] can be described thus: Initial plasma concentration in rat at 0.25 mg/kg, iv. The class given is ADME, organism-based. As to conditions: in vivo, iv, 0.25 mg/kg.
Series [12] in a line: Drug uptake in rat brain at 0.25 mg/kg, iv measured on day 2 at 0.25 hrs post-dose. The class given is ADME, organism-based. The note with it: time 2 day, read-out: Drug uptake.
Series [13] in a line: AUC in rat at 0.25 mg/kg, iv measured for 24 hrs. The class given is ADME, organism-based. Details: time 24 hrs, dose 0.25 mg/kg, route iv. The note with it: in vivo.
Series [14] in a line: Half-life in rat at 0.25 mg/kg, iv measured for 24 hrs. As to conditions: in vivo. The class given is ADME, organism-based.
Series [15] addresses T2, D(3) dopamine receptor. The series is described as follows: Displacement of [3H]N-methylspiperone from human D3 receptor expressed in HEK293 cell membrane by competitive inhibition based analysis. It counts as cell membranes.
The target in series [16] is T3, D(4) dopamine receptor (Homo sapiens) (UniProt P21917).
T3 sequence (whole entry): T1 sequence (P21917 whole entry)
The series is described as follows: Displacement of [3H]N-methylspiperone from human D4 receptor expressed in HEK293 cell membrane at 10 uM by competitive inhibition based analysis. The class given is cell membranes.

Sequence of D(1B) dopamine receptor (P21918 whole entry): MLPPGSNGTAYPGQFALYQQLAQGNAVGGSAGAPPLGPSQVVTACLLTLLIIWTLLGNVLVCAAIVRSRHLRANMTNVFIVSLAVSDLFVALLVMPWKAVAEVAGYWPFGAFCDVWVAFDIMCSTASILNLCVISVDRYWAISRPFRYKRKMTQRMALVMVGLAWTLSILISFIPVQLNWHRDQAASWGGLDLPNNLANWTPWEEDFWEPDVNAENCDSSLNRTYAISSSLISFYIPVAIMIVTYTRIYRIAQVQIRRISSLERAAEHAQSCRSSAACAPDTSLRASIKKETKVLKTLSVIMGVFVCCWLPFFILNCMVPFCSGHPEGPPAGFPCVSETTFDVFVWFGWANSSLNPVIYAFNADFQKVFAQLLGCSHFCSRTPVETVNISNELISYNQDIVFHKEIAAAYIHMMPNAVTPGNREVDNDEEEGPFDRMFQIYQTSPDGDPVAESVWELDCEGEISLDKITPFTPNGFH
Sequence of D(1A) dopamine receptor (P21728 whole entry): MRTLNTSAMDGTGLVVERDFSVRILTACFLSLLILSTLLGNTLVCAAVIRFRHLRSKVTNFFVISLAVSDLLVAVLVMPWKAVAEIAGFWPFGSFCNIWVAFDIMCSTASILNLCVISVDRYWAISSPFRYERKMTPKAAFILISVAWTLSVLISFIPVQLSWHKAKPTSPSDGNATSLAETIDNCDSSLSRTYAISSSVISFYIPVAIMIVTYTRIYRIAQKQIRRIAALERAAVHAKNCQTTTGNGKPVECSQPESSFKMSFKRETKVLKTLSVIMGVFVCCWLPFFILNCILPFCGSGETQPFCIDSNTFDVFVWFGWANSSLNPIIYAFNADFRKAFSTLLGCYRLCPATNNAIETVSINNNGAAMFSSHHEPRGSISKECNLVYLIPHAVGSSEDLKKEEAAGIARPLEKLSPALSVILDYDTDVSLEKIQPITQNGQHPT
Sequence of D(2) dopamine receptor (Homo sapiens) (P14416 whole entry): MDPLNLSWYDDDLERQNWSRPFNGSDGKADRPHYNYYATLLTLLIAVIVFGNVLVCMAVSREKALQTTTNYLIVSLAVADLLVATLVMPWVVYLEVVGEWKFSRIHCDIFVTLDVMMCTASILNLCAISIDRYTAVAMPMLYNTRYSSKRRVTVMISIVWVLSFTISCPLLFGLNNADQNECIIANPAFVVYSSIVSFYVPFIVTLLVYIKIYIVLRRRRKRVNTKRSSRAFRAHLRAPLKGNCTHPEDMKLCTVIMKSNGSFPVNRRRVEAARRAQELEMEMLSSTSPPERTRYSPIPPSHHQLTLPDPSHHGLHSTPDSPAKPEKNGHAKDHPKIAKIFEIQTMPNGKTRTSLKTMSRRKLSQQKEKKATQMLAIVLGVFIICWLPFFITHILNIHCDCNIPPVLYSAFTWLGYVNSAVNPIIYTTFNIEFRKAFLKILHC
T2 sequence (P35462 whole entry): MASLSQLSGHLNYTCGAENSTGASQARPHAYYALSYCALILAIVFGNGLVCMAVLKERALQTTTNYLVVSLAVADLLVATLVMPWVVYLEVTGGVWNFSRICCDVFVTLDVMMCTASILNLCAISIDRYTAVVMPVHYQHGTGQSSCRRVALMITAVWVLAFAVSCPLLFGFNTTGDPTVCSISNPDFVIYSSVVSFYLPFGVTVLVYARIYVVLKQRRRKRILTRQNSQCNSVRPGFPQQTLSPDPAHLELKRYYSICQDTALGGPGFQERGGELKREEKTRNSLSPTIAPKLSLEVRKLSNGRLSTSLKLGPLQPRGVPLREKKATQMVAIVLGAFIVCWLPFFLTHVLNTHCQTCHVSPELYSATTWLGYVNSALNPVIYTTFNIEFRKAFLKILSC

As to `Fc1cc(COC2CCN(Cc3ccc4[nH]cnc4c3)CC2)ccc1Cl`, the concentration at 48 h came to 14.1 ng/mL in series [1] and 139 ng/g in series [12]. The compound also showed a volume of distribution (Vdss) in series [2] of 13.6 L/kg. For the same compound, the Fu was 7.7% in series [3] and 17.1% in series [7]. The same compound showed a concentration for half-maximal inhibition (IC50) in [4] of 1510 nM. The Ki in [4] came to 1520 nM. The inhibition in series [5], in [6], in series [9] and in series [10] was under 50% each time. For the same compound, the Kp at 48 h in [8] is 9.9. In addition, in series [11], the C0 was 23.5 ng/mL. In addition, in [13], the exposure (AUC) was 79.9 ng·h/mL. Moreover, the t1/2 in [14] worked out at 1.1 h.
Compound `Cc1c(Cl)cccc1NC(=O)CN1CCC(OCc2ccc(Cl)c(F)c2)CC1` gave an IC50 in [4] of 437 nM. The inhibition constant (Ki) in series [4] is 441 nM; in series [15], 2360 nM. The inhibition is under 50% in series [5], 76.2% in [6] (filed as antagonist), under 50% in [9] and under 50% in series [10].
On to `Cc1nc(CN2CCC(OCc3cccc(C(F)(F)F)c3)CC2)c2ccccn12`, for which the figures for the Fu in [3] and in series [7] were 5.2% and 3.6%, respectively. The compound also gave an IC50 in series [4] of 302 nM. Moreover, the Ki in series [4] was determined as 309 nM; in series [15], 896 nM. Besides, the inhibition in series [5], in [6], in series [9] and in [10] was under 50% in each case.
Consider `Cc1cccc(CO[C@H]2CCCN(Cc3ncc4ccccn34)C2)n1`, for which the inhibition in series [16] was 18.9%; in series [5], under 50%; in [6], under 50%; in series [9], under 50%; in series [10], under 50%.
As for `Cc1ccccc1CO[C@H]1CCCN(Cc2ccc(Cl)c(Cl)c2)C1`, the inhibition in [16] (filed as antagonist) was 43.9%; in series [5], under 50%; in series [6], under 50%; in [9], under 50%; in series [10] it was under 50%.
On to `Cc1cccc(CO[C@H]2CCCN(Cc3cn4ccccc4n3)C2)n1`, for which the inhibition is 22.5% in series [16]; under 50% in series [5]; under 50% in series [6]; under 50% in series [9]; under 50% in [10].
Turning to `Cc1ccccc1CO[C@H]1CCCN(Cc2ccc(Cl)cc2F)C1`, the inhibition is -1.6% in series [16]; under 50% in [5]; under 50% in [6]; under 50% in series [9]; under 50% in series [10].
Regarding `FC(F)(F)c1cccc(COC2CCN(Cc3ccc4[nH]cnc4c3)CC2)c1`, the Fu in series [3] turned out to be 2.5%; in series [7], 16.1%. This compound also gave a concentration for half-maximal inhibition (IC50) in series [4] of 1820 nM. Besides, the Ki in series [4] worked out at 1800 nM; in [15] it was 948 nM. The inhibition in [5] was under 50%; in [6] (filed as antagonist), 83%; in series [9] it was under 50%; in [10], under 50%.
As to `Cc1ccccc1CN1CCC[C@H](OCc2cccc(F)c2)C1`, the inhibition in series [16] was 29.2%; in series [5], under 50%; in series [6], under 50%; in series [9] it was under 50%; in series [10], under 50%.
For the compound `Cn1ncc2cc(CN3CCC(OCc4cccc(C(F)(F)F)c4)CC3)ccc21`, the Fu in series [3] is given as 1%; in series [7], 5.7%. Also, in series [4], the 50% inhibitory concentration (IC50) is 200 nM. Moreover, the inhibitory constant (Ki) is 200 nM in series [4] and 923 nM in series [15]. The inhibition in series [5] is under 50%; in series [6] (filed as antagonist), 92%; in [9] it was under 50%; in series [10], under 50%.
As for `Cn1cnc2cc(CN3CCC(OCc4ccc(Cl)c(F)c4)CC3)ccc21`, the inhibition in series [16] (filed as antagonist) was 48%.
As for `FC(F)(F)Oc1cccc(CO[C@H]2CCCN(Cc3ncc4ccccn34)C2)c1`, the inhibition was 40.4% in series [16] (filed as antagonist); under 50% in series [5]; under 50% in series [6]; under 50% in series [9]; under 50% in series [10].
As for `Fc1ccc(COC2CCN(Cc3ccc4[nH]cnc4c3)CC2)cc1F`, the concentration at 48 h in series [1] was found to be 7 ng/mL; in series [12], 112 ng/g. The Vdss in series [2] stood at 19.2 L/kg. The Fu is on record as 22.9% in [3] and 40.1% in [7]. Moreover, in series [4], the IC50 is 4270 nM. The inhibition constant (Ki) in [4] was found to be 4280 nM; in series [15] it was 4080 nM. In addition, the inhibition in [5] is under 50%; in [6] (filed as antagonist), 57%; in series [9], under 50%; in series [10] it was under 50%. For the same compound, the Kp at 48 h in [8] turned out to be 16.1. This compound yielded an AUC in series [13] of 65.6 ng·h/mL. Further, in [14], the t1/2 was 1.2 h.
As for `Fc1cccc(CO[C@H]2CCCN(c3ccc(Cl)cc3)C2)c1`, the inhibition in [16] is -10%; in [5], under 50%; in series [6] (filed as antagonist), 71%; in series [9], under 50%; in series [10], under 50%. The compound further returned a Ki in series [15] of over 10000 nM.
In the case of `COc1ccc(CO[C@H]2CCCN(Cc3cccc(C)c3)C2)cc1F`, the inhibition is 45.8% in series [16] (filed as antagonist); under 50% in [5]; under 50% in series [6]; under 50% in series [9]; under 50% in [10].
For the compound `Cc1ccc(CO[C@H]2CCCN(Cc3cccc(F)c3)C2)cc1`, the inhibition is 33.1% in [16]; under 50% in series [5]; under 50% in series [6]; under 50% in [9]; under 50% in series [10].
For `Cc1c(Cl)cccc1NC(=O)CN1CCC(OCc2cccc(C(F)(F)F)c2)CC1`, the IC50 in [4] was 1150 nM. For the same compound, the Ki in series [4] is 1160 nM; in series [15], 2120 nM. Further, the inhibition is under 50% in [5], 84% in [6] (filed as antagonist), under 50% in series [9] and under 50% in series [10].
Turning to `Fc1cccc(COC2CCN(Cc3ncn4ccccc34)CC2)c1`, the Fu in series [3] is on record as 2.3%; in [7], 40.5%. This compound also showed an IC50 in series [4] of 166 nM. The Ki in series [4] is 166 nM. Moreover, the inhibition in series [5], in series [6], in [9] and in series [10] was under 50% each time.
For the compound `Fc1ccc(CO[C@H]2CCCN(Cc3cn4ccccc4n3)C2)cc1F`, the figures for the Fu in [3] and in series [7] were 0.2% and 8.7%, respectively. In addition, in [4], the IC50 was 372 nM. Moreover, the inhibition constant (Ki) in [4] was determined as 375 nM. The inhibition in [5], in series [6], in [9] and in [10] was under 50% each time.
`Cn1cnc2cc(CN3CCC(OCc4cccc(C(F)(F)F)c4)CC3)ccc21`: the concentration at 48 h in series [1] is 30.1 ng/mL; in [12], 214 ng/g. In series [2], this compound showed a Vdss of 6.3 L/kg. Also, the Fu in series [3] is reported as 1%; in series [7] it was 5.7%. The same compound had a half-maximal inhibitory concentration (IC50) in series [4] of 646 nM. Besides, in [4], the inhibition constant (Ki) is 640 nM. Besides, the Kp at 48 h in [8] is 7.2. The C0 in series [11] came out at 60.2 ng/mL. The compound also showed an AUC in [13] of 149 ng·h/mL. The t1/2 in [14] was found to be 1.1 h.
On to `Fc1cc(COC2CCN(Cc3cc4ccc(Cl)cc4[nH]3)CC2)ccc1Cl`, for which, in series [4], the half-maximal inhibitory concentration (IC50) was 324 nM. For the same compound, the Ki in series [4] worked out at 323 nM; in series [15], 557 nM. Besides, the inhibition in [5] is under 50%; in series [6] (filed as antagonist), 76%; in series [9], under 50%; in series [10] (filed as antagonist), 65%.
For the compound `Fc1cccc(CO[C@H]2CCCN(Cc3ccc(Cl)cc3F)C2)c1`, the inhibition in series [16] (filed as antagonist) is 44.9%; in series [5], under 50%; in series [6], under 50%; in series [9] it was under 50%; in series [10] it was under 50%.
